Results published in PMC8523698, “Preclinical characterization of an intravenous coronavirus 3CL protease inhibitor for the potential treatment of COVID19” (Nature Communications, 2021).
pIC50: −log10 of the molar value. Where “and” joins values, the source holds several entries; their conditions need not be identical. Identical values can stand only once. Like-named read-outs stand apart in the source and are kept apart here.

Tests used:
[1] = Human blood hemocompatibility (hemolysis, flocculation)
[2] = In vitro micronucleus formation; type: cell-based
CYP3A4/5 = assay: Reversible CYP inhibition in human liver microsomes; conditions: for pIC50: pH 7.4, probe midazolam (1′-hydroxylation), at approximately KM, IC50, Midazolam 1′-hydroxylation
MDR1/P-gp = MDR1/P-gp (Homo sapiens, UniProt P08183); assay: Transporter inhibition using membrane vesicles; conditions: for % PGP Uptake Activity: uptake of N-methyl quinidine by MDR1, single replicates
MRC-5 cells = assay: Cytotoxicity in MRC-5 cells; conditions: MRC-5, plus 0.5 uM efflux inhibitor; one value per run date (N=3)
CYP2C9 = CYP2C9 (Homo sapiens, UniProt P11712); assay: Reversible CYP inhibition in human liver microsomes; conditions: for activity at 0.01 µM / activity at 0.158 µM / activity at 0.398 µM / activity at 1 µM / activity at 15.8 µM / activity at 39.8 µM / activity at 100 µM: human, microsomes, pH 7.4, Percent of Control Activity
[3] = Secondary/off-target pharmacology panel (Eurofins Cerep); conditions: assessed at 100 µM
[4] = Monkey pharmacokinetic study; conditions: for Vd: Vdss
[5] = Rat pharmacokinetic study; conditions: for Vd: Vdss
[6] = human, human liver microsomes, pH 7.4, probe midazolam (mdz), Percent of Control Activity, CYP 3A4/5 (mdz), 30-Minute Preincubation
[7] = human, human liver microsomes, pH 7.4, probe midazolam (mdz), Percent of Control Activity, CYP 3A4/5 (mdz), Zero-Minute Preincubation
[8] = monkey, PF-07304814 prodrug dosed […] intravenous, individual monkeys, […]
[9] = rat, PF-07304814 prodrug dosed […] intravenous, individual rats, […]

Sequence of MDR1/P-gp (P08183 whole entry): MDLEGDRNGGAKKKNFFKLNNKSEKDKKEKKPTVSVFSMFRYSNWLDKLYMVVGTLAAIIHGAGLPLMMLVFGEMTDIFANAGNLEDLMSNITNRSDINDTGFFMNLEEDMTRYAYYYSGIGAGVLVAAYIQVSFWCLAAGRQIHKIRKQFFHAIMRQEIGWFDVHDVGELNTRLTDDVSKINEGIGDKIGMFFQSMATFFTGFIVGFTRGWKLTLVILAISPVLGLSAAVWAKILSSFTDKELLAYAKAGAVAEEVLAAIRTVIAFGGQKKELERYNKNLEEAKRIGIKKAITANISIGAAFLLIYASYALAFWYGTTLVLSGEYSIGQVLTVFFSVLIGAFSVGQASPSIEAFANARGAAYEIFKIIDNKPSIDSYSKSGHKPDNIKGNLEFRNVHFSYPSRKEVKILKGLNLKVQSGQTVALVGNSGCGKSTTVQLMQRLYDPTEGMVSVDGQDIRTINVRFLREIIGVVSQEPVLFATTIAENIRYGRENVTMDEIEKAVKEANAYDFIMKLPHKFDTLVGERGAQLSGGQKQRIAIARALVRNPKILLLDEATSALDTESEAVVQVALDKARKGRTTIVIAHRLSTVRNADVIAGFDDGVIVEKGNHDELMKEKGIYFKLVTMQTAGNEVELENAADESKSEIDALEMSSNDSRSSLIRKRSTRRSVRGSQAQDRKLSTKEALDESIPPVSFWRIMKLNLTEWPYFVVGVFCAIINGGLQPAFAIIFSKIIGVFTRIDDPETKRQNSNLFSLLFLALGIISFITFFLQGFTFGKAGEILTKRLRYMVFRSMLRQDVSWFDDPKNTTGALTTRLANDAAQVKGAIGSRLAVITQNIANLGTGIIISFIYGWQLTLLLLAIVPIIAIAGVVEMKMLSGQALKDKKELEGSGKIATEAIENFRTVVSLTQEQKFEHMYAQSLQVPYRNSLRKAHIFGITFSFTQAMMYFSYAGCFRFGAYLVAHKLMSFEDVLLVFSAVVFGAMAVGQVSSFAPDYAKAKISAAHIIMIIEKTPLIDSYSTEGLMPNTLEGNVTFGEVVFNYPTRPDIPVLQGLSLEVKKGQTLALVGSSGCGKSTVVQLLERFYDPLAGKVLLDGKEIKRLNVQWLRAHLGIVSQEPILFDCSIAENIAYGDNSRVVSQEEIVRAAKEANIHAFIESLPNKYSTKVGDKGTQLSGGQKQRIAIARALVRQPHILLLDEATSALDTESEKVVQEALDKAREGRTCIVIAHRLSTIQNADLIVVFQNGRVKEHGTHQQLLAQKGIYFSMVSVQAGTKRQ
Sequence of CYP2C9 (P11712 whole entry): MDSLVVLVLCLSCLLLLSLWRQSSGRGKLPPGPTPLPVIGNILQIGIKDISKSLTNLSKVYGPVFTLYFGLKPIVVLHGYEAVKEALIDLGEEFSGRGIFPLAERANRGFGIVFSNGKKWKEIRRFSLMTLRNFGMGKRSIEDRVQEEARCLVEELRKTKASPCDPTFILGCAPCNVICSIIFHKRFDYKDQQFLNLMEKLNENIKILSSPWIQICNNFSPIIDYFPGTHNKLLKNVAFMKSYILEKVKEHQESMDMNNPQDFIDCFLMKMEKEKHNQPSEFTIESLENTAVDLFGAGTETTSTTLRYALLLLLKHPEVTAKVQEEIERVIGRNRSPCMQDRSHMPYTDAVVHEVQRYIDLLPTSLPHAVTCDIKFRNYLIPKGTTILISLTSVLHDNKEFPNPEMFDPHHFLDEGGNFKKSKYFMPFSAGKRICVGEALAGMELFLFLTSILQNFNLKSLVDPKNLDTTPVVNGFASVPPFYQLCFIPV

## COc1cccc2[nH]c(C(=O)N[C@@H](CC(C)C)C(=O)N[C@@H](C[C@@H]3CCNC3=O)C(=O)COP(=O)(O)O)cc12 [PF-07304814]
[1]
  hemolysis or flocculation/turbidity parameters: no effect on hemolysis or flocculation/turbidity parameters
[2]
  micronuclei formation: did not induce micronuclei formation
CYP3A4/5; CYP 3A4/5 (mdz), 0.01 µM, 30-Minute Preincubation
  Percent of Control Activity: 103.5%
CYP3A4/5; CYP 3A4/5 (mdz), 15.8 µM, Zero-Minute Preincubation
  Percent of Control Activity: 105.7%
CYP3A4/5; CYP 3A4/5 (mdz), 39.8 µM, 30-Minute Preincubation
  Percent of Control Activity: 99.7%
CYP3A4/5; CYP 3A4/5 (mdz), 100 µM, 30-Minute Preincubation
  Percent of Control Activity: 95.6%
CYP3A4/5; CYP 3A4/5 (mdz), 100 µM, Zero-Minute Preincubation
  Percent of Control Activity: 100.4%
CYP3A4/5; human, human liver microsomes, T0
  pIC50: < 4.00
CYP3A4/5; human, human liver microsomes, T30
  pIC50: < 4.00
CYP3A4/5; human, human liver microsomes, pH 7.4, probe midazolam (mdz), Percent of Control Activity, CYP 3A4/5 (mdz), 0.01 µM, Zero-Minute Preincubation
  activity at 0.01 µM: 96.3%
CYP3A4/5; [6]
  activity at 0.158 µM: 103%
  activity at 1 µM: 100%
CYP3A4/5; [7]
  activity at 0.158 µM: 95%
  activity at 1 µM: 99.8%
CYP3A4/5; human, human liver microsomes, pH 7.4, probe midazolam (mdz), Percent of Control Activity, CYP 3A4/5 (mdz), 0.398 µM, 30-Minute Preincubation
  activity at 0.398 µM: 100%
CYP3A4/5; human, human liver microsomes, pH 7.4, probe midazolam (mdz), Percent of Control Activity, CYP 3A4/5 (mdz), 15.8 µM, Zero-Minute Preincubation
  activity at 15.8 µM: 101%
CYP3A4/5; human, human liver microsomes, pH 7.4, probe midazolam (mdz), Percent of Control Activity, CYP 3A4/5 (mdz), 100 µM, 30-Minute Preincubation
  activity at 100 µM: 95%
MDR1/P-gp; IC50, N-methyl quinidine (0.2 µM)
  pIC50: < 3.52
MDR1/P-gp; inhibitor concentration 0.0732 uM
  % PGP Uptake Activity: 123.862% and 96.8629% and 149.319%
MDR1/P-gp; inhibitor concentration 0.2930 uM
  % PGP Uptake Activity: 106.737% and 95.0116% and 107.663%
MDR1/P-gp; inhibitor concentration 1.1719 uM
  % PGP Uptake Activity: 108.588% and 115.068% and 109.514%
MDR1/P-gp; inhibitor concentration 4.6875 uM
  % PGP Uptake Activity: 120.159% and 118.308% and 119.234%
MDR1/P-gp; inhibitor concentration 18.7500 uM
  % PGP Uptake Activity: 122.011% and 113.68% and 118.308%
MDR1/P-gp; inhibitor concentration 300.0000 uM
  % PGP Uptake Activity: 73.875% and 64.7724% and 99.64%
MRC-5 cells
  CC50: > 100 µM
CYP2C9
  pIC50: < 4.00
CYP2C9; CYP 2C9, 0.01 µM, 30-Minute Preincubation, 0.01 µM
  Percent of Control Activity: 99.6% and 105.4%
CYP2C9; CYP 2C9, 0.01 µM, Zero-Minute Preincubation, 0.01 µM
  Percent of Control Activity: 102.7% and 88.8%
CYP2C9; CYP 2C9, 0.158 µM, 30-Minute Preincubation, 0.158 µM
  Percent of Control Activity: 97.3% and 103.8%
CYP2C9; CYP 2C9, 0.158 µM, Zero-Minute Preincubation, 0.158 µM
  Percent of Control Activity: 103.7% and 96.2%
CYP2C9; CYP 2C9, 0.398 µM, 30-Minute Preincubation, 0.398 µM
  Percent of Control Activity: 96.2%
CYP2C9; CYP 2C9, 0.398 µM, Zero-Minute Preincubation, 0.398 µM
  Percent of Control Activity: 103.2% and 91.4%
CYP2C9; CYP 2C9, 1 µM, 30-Minute Preincubation, 1 µM
  Percent of Control Activity: 98.0% and 100.0%
CYP2C9; CYP 2C9, 1 µM, Zero-Minute Preincubation, 1 µM
  Percent of Control Activity: 88.9%
CYP2C9; CYP 2C9, 15.8 µM, 30-Minute Preincubation, 15.8 µM
  Percent of Control Activity: 97.7% and 102.2%
CYP2C9; CYP 2C9, 15.8 µM, Zero-Minute Preincubation, 15.8 µM
  Percent of Control Activity: 104.1% and 92.6%
CYP2C9; CYP 2C9, 39.8 µM, 30-Minute Preincubation, 39.8 µM
  Percent of Control Activity: 98.6% and 102.8%
CYP2C9; CYP 2C9, 39.8 µM, Zero-Minute Preincubation, 39.8 µM
  Percent of Control Activity: 101.8% and 92.4%
CYP2C9; CYP 2C9, 100 µM, 30-Minute Preincubation, 100 µM
  Percent of Control Activity: 97.1% and 95.4%
CYP2C9; CYP 2C9, 100 µM, Zero-Minute Preincubation, 100 µM
  Percent of Control Activity: 91.7%
CYP2C9; Diclofenac 4′-hydroxylation, T30
  pIC50: < 4.00
CYP2C9; CYP 2C9, 0.01 µM, 30-Minute Preincubation
  activity at 0.01 µM: 100%
CYP2C9; CYP 2C9, 0.01 µM, Zero-Minute Preincubation
  activity at 0.01 µM: 98.2%
CYP2C9; CYP 2C9, 0.158 µM, 30-Minute Preincubation
  activity at 0.158 µM: 98.3%
CYP2C9; CYP 2C9, 0.158 µM, Zero-Minute Preincubation
  activity at 0.158 µM: 103%
CYP2C9; CYP 2C9, 0.398 µM, 30-Minute Preincubation
  activity at 0.398 µM: 106%
CYP2C9; CYP 2C9, 0.398 µM, Zero-Minute Preincubation
  activity at 0.398 µM: 102%
CYP2C9; CYP 2C9, 1 µM, 30-Minute Preincubation
  activity at 1 µM: 100%
CYP2C9; CYP 2C9, 1 µM, Zero-Minute Preincubation
  activity at 1 µM: 100%
CYP2C9; CYP 2C9, 15.8 µM, 30-Minute Preincubation
  activity at 15.8 µM: 98.8%
CYP2C9; CYP 2C9, 15.8 µM, Zero-Minute Preincubation
  activity at 15.8 µM: 106%
CYP2C9; CYP 2C9, 39.8 µM, 30-Minute Preincubation
  activity at 39.8 µM: 101%
CYP2C9; CYP 2C9, 39.8 µM, Zero-Minute Preincubation
  activity at 39.8 µM: 105%
CYP2C9; CYP 2C9, 100 µM, 30-Minute Preincubation
  activity at 100 µM: 96.5%
CYP2C9; CYP 2C9, 100 µM, Zero-Minute Preincubation
  activity at 100 µM: 101%
[3]
  secondary (off-target) pharmacology: minimal potential for secondary (off-target) pharmacology
[4]; male, cynomolgus monkey, plasma, iv, Cl, monkey IV (n=2, range), PF-07304814 […], PF-00835231 1.0mg/kg
  clearance: 191 mL/min/kg
[4]; male, cynomolgus monkey, plasma, iv, Terminal T1/2, monkey IV (n=2, range), PF-07304814 […], PF-00835231 1.0mg/kg
  half-life: 2.6 h
[4]; male, cynomolgus monkey, plasma, iv, monkey IV (n=2, range), PF-07304814 […], PF-00835231 1.0mg/kg
  Vd: 1.8 L/kg
[4]; male, cynomolgus monkey, plasma, iv, […], Clearance, Mean Data, monkey, PF-07304814 prodrug dosed […] intravenous, mean
  clearance: 191 mL/min/kg
[4]; male, cynomolgus monkey, plasma, iv, […], Clearance, monkey, PF-07304814 prodrug dosed […] intravenous, individual monkeys
  clearance: 252 mL/min/kg
[4]; male, cynomolgus monkey, plasma, iv, […], Half life, Mean Data, monkey, PF-07304814 prodrug dosed […] intravenous, mean
  half-life: 2.6 h
[4]; male, cynomolgus monkey, plasma, iv, […], Half life, monkey, PF-07304814 prodrug dosed […] intravenous, individual monkeys
  half-life: 2.2 h
[4]; male, cynomolgus monkey, plasma, iv, […], Mean Data, monkey, PF-07304814 prodrug dosed […] intravenous, mean
  Vd: 1.78 L/kg
[4]; monkey IV, PF-07304814 […], PF-00835231 1.0mg/kg
  %unchanged in urine: < 0.1%
[4]; monkey plasma, PF-07304814 prodrug dosed […] intravenous, time 7 h, mean, BLQ=0.1ng/mL
  Total Concn, Mean Data: BLQ
[4]; monkey urine 0-7h, PF-07304814 prodrug dosed […] intravenous, individual monkeys, BLQ=1ng/mL for urine
  Urine Concn: BLQ
[4]; [8]
  Half life: 3.0 h
  clearance: 129 mL/min/kg
[5]; male, Wistar-Hannover, rat, plasma, iv, CL, rat IV, PF-07304814 […] (n=2, range), PF-00835231 2mg/kg (n=3, ± SD)
  clearance: 194 mL/min/kg
[5]; male, Wistar-Hannover, rat, plasma, iv, Terminal T1/2, rat IV, PF-07304814 […] (n=2, range), PF-00835231 2mg/kg (n=3, ± SD)
  half-life: 0.3 h
[5]; male, Wistar-Hannover, rat, plasma, iv, rat IV, PF-07304814 […] (n=2, range), PF-00835231 2mg/kg (n=3, ± SD)
  Vd: 0.58 L/kg
[5]; male, Wistar-Hannover, rat, plasma, iv, […], Clearance, Mean Data, PF-07304814 prodrug dosed […] intravenous, mean
  clearance: 194 mL/min/kg
[5]; male, Wistar-Hannover, rat, plasma, iv, […], Clearance, PF-07304814 prodrug dosed […] intravenous, individual rats
  clearance: 168 mL/min/kg
[5]; male, Wistar-Hannover, rat, plasma, iv, […], Half life, Mean Data, PF-07304814 prodrug dosed […] intravenous, mean
  half-life: 0.3 h
[5]; male, Wistar-Hannover, rat, plasma, iv, […], Half life, PF-07304814 prodrug dosed […] intravenous, individual rats
  half-life: 0.36 h
[5]; male, Wistar-Hannover, rat, plasma, iv, […], Mean Data, PF-07304814 prodrug dosed […] intravenous, mean
  Vd: 0.58 L/kg
[5]; male, Wistar-Hannover, rat, plasma, iv, […], PF-07304814 prodrug dosed […] intravenous, individual rats
  Vd: 0.567 L/kg
[5]; rat IV, PF-07304814 […], PF-00835231 2mg/kg
  %unchanged in urine: < 0.1%
[5]; [9]
  Half life: 0.23 h
  Vdss: 0.592 L/kg
  clearance: 220 mL/min/kg
